The text below walks through data of US9670374B2, “Water-based ink for inkjet printing” (KAO CORPORATION, priority 2013, dated 2017).

The structures appear in SMILES notation. Read-outs that look alike come from different tables or passages of the source.

A short description of this data set: Measurement of 1-octanol/water partition coefficient (shake flask method). Format: physicochemical. The procedure:
The 1-octanol/water partition coefficient of the diethylene glycol isopropyl ether was measured by a shake flask method prescribed in JIS Z7260-107.
First, 10 g of ion-exchanged water and 10 g of 1-octanol were charged into a 50 mL separating funnel, and shaken at 25° C. to establish an equilibrium therebetween. Then, 1 g of diethylene glycol isopropyl ether was charged into the separating funnel, and the contents of the separating funnel were intimately shaken and subjected to centrifugal separation to separate the mixture into a 1-octanol phase and a water phase. The amounts of the diethylene glycol isopropyl ether dissolved in the respective phases were quantitatively determined by gas chromatography, thereby obtaining a partition coefficient of the diethylene glycol isopropyl ether between the two phases. The log P vale was determined as a common logarithm of the partition coefficient.
The same measurement procedure as in the above item (i) was repeated except for using a solvent to be measured in place of the diethylene glycol isopropyl ether (c1), thereby obtaining a 1-octanol/water partition coefficient of the solvent.

Setting [1] is: 1-octanol/water, shake flask method JIS Z7260-107, 25° C., log P as common logarithm, read-out: 1-octanol/water partition coefficient.
Setting [2] is: shake flask method JIS Z7260-107, 25° C., log P as common logarithm.
Where [3] appears, read: shake flask method JIS Z7260-107, 25° C., log P as common logarithm, read-out: 1-octanol/water partition coefficient.

As to `CC(C)OCCOCCO` [diethylene glycol isopropyl ether], under setting [1], the logP is 0.04. Under setting [2], the 1-octanol/water partition coefficient entry is “DEGPE (0.04)*^1”. For `OCC(O)CO` [glycerol], the 1-octanol/water partition coefficient result is reported as “Glycerol (≧−1.5)” and the logP is -1.5. Take `CCOCCOCCO` [diethylene glycol monoethyl ether, Diethylene glycol monoethyl ether]: under setting [1], the logP was -0.31. Under setting [2], the 1-octanol/water partition coefficient entry is reported as “DEGEE (−0.31)”.

Regarding `COCCOCCO` [diethylene glycol monomethyl ether, Diethylene glycol monomethyl ether], the 1-octanol/water partition coefficient result under setting [2] was “DEGME (−0.85)”. In addition, under setting [3], the logP was -0.85. Take `CC(O)CO` (stereo not shown) [propylene glycol]: the 1-octanol/water partition coefficient entry is reported as “Propylene glycol (−0.95)” and the logP is -0.95. `O=C1CCCN1` [2-pyrrolidone] registered a logP of -0.63. As to `OCCOCCOCCO` [triethylene glycol], the 1-octanol/water partition coefficient result was “Triethylene glycol (−1.45)” and the logP was -1.45.

As to `OCCOCCO` [diethylene glycol], the 1-octanol/water partition coefficient entry under setting [2] is recorded as “Diethylene glycol (−1.39)”. The logP under setting [3] was -1.39. For the molecule `CCCCOCCOCCO` [Diethylene glycol monobutyl ether], the 1-octanol/water partition coefficient entry is “ether (0.7)”.
